Experimental findings from ChEMBL document CHEMBL1150278, “Thiocamptothecin” (J Med Chem, 2008) are described below.

Test [1] relates to NCI-H460. Description: Cytotoxicity against human H460 cells after 72 hrs. The note with it: NCI-H460, 72 h. The class given is functional, cell-based.
Test [2] concerns HT-29. Description: Cytotoxicity against human mitoxantrone-resistant HT29 cells after 1 hr. The class given is functional, cell-based. The following applies: HT-29, 1 h.
The test system of test [3] is HT-29. Description: Cytotoxicity against human HT29 cells after 1 hr. The class given is functional, cell-based. The note with it: HT-29, 1 h.
The species named for test [4] is Homo sapiens. The experiment in a line: Stimulation of human recombinant topoisomerase 1B-mediated SV40 DNA cleavage.
The subject of test [5] is IGROV-1. The experiment in a line: Cytotoxicity against human IGROV1 cells after 1 hr. It counts as functional, cell-based. The following applies: IGROV-1, 1 h.
The test system of test [6] is NCI-H460. The experiment in a line: Cytotoxicity against human H460 cells after 1 hr. It counts as functional, cell-based. The following applies: NCI-H460, 1 h.
For test [7], the system named is IGROV-1. The experiment in a line: Cytotoxicity against human IGROV1 cells after 72 hrs. The note with it: IGROV-1, 72 h. It counts as functional, cell-based.

Calls of active or inactive are those of the source. No cut-off for these calls is given here.

Regarding `CC[C@@]1(O)C(=O)OCc2c1cc1n(c2=S)Cc2cc3ccccc3nc2-1`, the IC50 (commonly the concentration at which inhibition is half-maximal) in test [1] worked out at 7.4 nM; in test [2] it was 110 nM; in test [3], 170 nM; in test [5], 220 nM; in test [6] it was 140 nM; in test [7], 4.67 nM. The result in test [4] was Active.

Take `CC[C@@]1(O)C(=O)OCc2c1cc1n(c2=O)Cc2cc3ccccc3nc2-1` [CAMPTOTHECIN]: the values for the IC50 in test [1], in test [5] and in test [7] were 6.2 nM, 1650 nM and 12 nM, respectively.
